Source: US20240269214A1, “SUBSTANCE HAVING HIGH ACTIVITY AND HIGH SAFETY, PREPARATION METHOD THEREFOR, AND APPLICATION THEREOF IN DRUG” (priority 2021, published 2024)

Legend:
[1] = test system: male Japanese white rabbits; assay: Inhibition of formation of atherosclerosis in rabbits on high-fat diet (percentage of aortic plaque area); format: in vivo; conditions: high-fat diet 6 weeks, oils 1.5 g/kg/d, simvastatin 2.0 mg/kg/d, PC group 42.6±9.7%
From the text: High fat fortified feed: Each rabbit is fed with 0.5 grams of cholesterol, 2.0 grams of lard, and 20 grams of egg yolk daily.
Feed for 6 weeks according to the above grouping and feeding conditions, and then execute the animals. After the animals are killed, the aorta is removed from the aortic valve orifice to the beginning of the common iliac artery, the aortic wall is cut longitudinally along the midline of the abdomen, fixed with 10% formaldehyde solution, and the distribution map of aortic lesions is drawn according to the aorta. The area of atherosclerotic plaque and the total area of aortic expansion are measured, and the percentage of plaque area is calculated.

[2] = test system: male Japanese white rabbits; assay: Reversing and ablating atherosclerosis in rabbits with established atherosclerosis model (percentage of aortic plaque area); format: in vivo; conditions: 6 weeks modelling then 3 months treatment, oils 1.5 g/kg/d, simvastatin 2.0 mg/kg/d, MOD 45.8±9.9%, MBF 59.9±8.9%
From the text: Forty-eight 4-month-old male Japanese white rabbits weighing 2.0±0.2 kg were selected and randomly divided into 2 groups, as follows: • Normal diet group (Negative control group, NC): 8 male Japanese white rabbits, fed with basic feed; • Atherosclerosis modeling group (MOD): 40 male Japanese white rabbits, fed with high fat fortified basic diet, and the dose of peanut oil was 1.5 g/kg/d (converted based on adult and animal weight, body surface area and Km factor);
The area of atherosclerotic plaque and the total area of aortic expansion is measured, and the percentage of plaque area is calculated.
Three months later, all animals are euthanized.
After the animals are killed, the aorta is removed from the aortic valve orifice to the beginning of the common iliac artery, the aortic wall is cut longitudinally along the midline of the abdomen, fixed with 10% formaldehyde solution, and the distribution map of aortic lesions is drawn according to the aorta. The area of atherosclerotic plaque and the total area of aortic expansion is measured, and the percentage of plaque area is calculated.

CCC(C)(C)C(=O)O[C@H]1C[C@@H](C)C=C2C=C[C@H](C)[C@H](CC[C@@H]3C[C@@H](O)CC(=O)O3)[C@H]21 [simvastatin]
Plaque area (percentage of atherosclerotic plaque in aortic area) [1]: 20.2±4.2%
Plaque area (percentage of atherosclerotic plaque in aortic area) [2]: 47.1±8.3%
